Data from patent US9493420B2, “Quinoline derivatives and uses thereof” (Portland State University, priority 2005, dated 2016).

Assays:
[1] = tested on: P. falciparum strain D6; conditions: cited from earlier work; also: key: S = sensitive; R = resistant; S/R = intermediate level of resistance
[2] = tested on: P. falciparum strain W2; conditions: cited from earlier work; also: key: S = sensitive; R = resistant; S/R = intermediate level of resistance
[3] = tested on: P. falciparum strain Dd2; conditions: cited from earlier work; also: key: S = sensitive; R = resistant; S/R = intermediate level of resistance
[4] = tested on: P. falciparum strain FCR3; conditions: cited from earlier work; also: key: S = sensitive; R = resistant; S/R = intermediate level of resistance
[5] = target: T1, recombinant human serotonin (hSERT) transporter (Homo sapiens, UniProt P31645); experiment: Inhibition of [3H]neurotransmitter uptake, hSERT; assay type: cell-based
T1 construct: expressed in transfected cells; host or cells: HEK cells expressing hSERT
Description: (§1) Selected RCQs were tested for inhibition of [^3H]neurotransmitter uptake by the recombinant human serotonin (hSERT), dopamine (HEK-hDAT), and norepinephrine (hNET) transporters by a modification of the method of Eshleman et al. (J. Pharmacol. Exp. Ther., 289(2):877-885, 1999). HEK-hDAT, hSERT, and -hNET expressing cells were grown on tissue culture dishes. After removing the medium and washing the plates with Ca^2+-, Mg^2+-free phosphate buffered saline (PBS), fresh medium was added and the plates were placed in a 25° C. water bath for 5 minutes. Cells were gently lifted from the plates and cell clusters separated by trituration. 50 μL aliquots of the suspended cells were added to assay tubes containing drugs and Krebs-HEPES assay buffer in a final volume of 0.5 mL.
(§2) Competition experiments were conducted in triplicate. After a 10 minute preincubation period at 25° C., [^3H]neurotransmitter (20 nM final concentration; [^3H]DA, [^3H]5-HT, or [^3H]NE) were added, and the mixtures incubated for 10 minutes. Reactions were terminated by filtration through Wallac filtermat A filters (presoaked in 0.05% polyethylenimine), using a Tomtec cell harvester. Scintillation fluid was added to each filtered spot, and radioactivity remaining on the filters determined using a Wallac 1205 Betaplate scintillation counter.
(§3) Specific uptake was defined as the difference in uptake observed in the absence and presence of 5 μM mazindol (hDAT and hNET) or 5 μM imipramine (hSERT). Inhibition of uptake was determined by non-linear regression using Prism software.

[6] = target: T2, recombinant human dopamine (HEK-hDAT) transporter (Homo sapiens, UniProt Q01959); experiment: Inhibition of [3H]neurotransmitter uptake, hDAT; assay type: cell-based
T2 construct: expressed in transfected cells; host or cells: HEK cells expressing hDAT (HEK-hDAT)
Description: as §1, §2, §3

[7] = tested on: Dd2 (CQ^R) P. falciparum strain; experiment: In vitro fluorescence (Sybr Green I) growth inhibition assay, Dd2 strain; assay type: cell-based; conditions: Plasmodium falciparum, DD2; Table 13; growth inhibition; read-out: IC50 (nM) Dd2 (CQ^R)
Excerpt: (§4) One exemplary method for measuring inhibitory effects of RCQ compound in vitro has been reported by Smilkstein et al. (Antimicrob. Agents Chemother., 48(5):1803-1806, 2004). This method employs fluorescent detection of the level of parasitemia in cultured red blood cells and can be automated for high-throughput screening of antimalarial RCQs. This exemplary method allows the inhibitory agent (such as a RCQ) to be in contact with the parasite for an entire developmental cycle without purine starvation, which is in contrast to the traditional ^3H-hypoxanthine method (Desjardins et al., Antimicrob. Agents Chemother., 16(6):710-718, 1979). Briefly, to perform the Smilkstein et al. method, an initial parasitemia of approximately 0.2% is attained by adding uninfected red blood cells (RBCs) to a stock culture of Plasmodium sp.-infected RBCs. […] After a period of incubation (such as about 72 hours), a sufficient amount (e.g., 100 μL) of a fluorescent DNA binding dye-detergent mixture (e.g., Sybr Green I dye-detergent mixture) to lyse cells and bind to DNA is added to the reactions. Because uninfected RBCs have no DNA, only parasite DNA (in infected RBCs) is available for binding to the fluorescent dye (e.g., Sybr Green I). Samples are then incubated in the dark for a period of time (e.g., one hour), followed by measurement of levels of fluorescence. For Sybr Green I, excitation and emission wavelength are 485 and 530 nm, respectively. Fluorescence readings, which represent the amount of parasite DNA in the sample, can be plotted against the Log [drug] and fit to a curve by nonlinear regression to obtain the IC50 value for the tested compound.
(§5) An in vitro fluorescence assay for determining IC50 of antimalarial drugs was performed as previously described by Smilkstein et al. (Antimicrob. Agents Chemother., 48(5):1803-1806, 2004). This relatively low-cost procedure can be automated for high-throughput screening of the antimalarial activities of RCQs described herein. Advantageous, this method also allows the tested agent (e.g, a RCQ) to be in contact with the parasite for an entire developmental cycle without purine starvation (which occurs with the commonly used ^3H-hypoxanthine method; see, e.g., Desjardins et al., Antimicrob. Agents Chemother., 16, (6):[…], 1979).
(§6) Briefly, an initial parasitemia of approximately 0.2% was attained by addition of uninfected red blood cells to a stock culture of cells infected with Dd2 (CQ^R) or D6 (CQ^S) P. falciparum strains. A 10 mM RCQ_02 solution (in DMSO) was prepared. RCQ_02 (at a final concentration from 10^−11 to 10^−4 M) and infected red blood cells (at a final concentration of 2% (v/v)) were mixed in 100 μL samples in individual wells of a 96-well plate. Each sample was prepared in triplicate. A triplicate set of reactions containing CQ (instead of RCQ_02) was included as a control. After a 72 hour incubation period, Sybr Green I dye-detergent mixture (100 μL) was added to each reaction. The samples were further incubated for an hour in the dark, and then placed in a 96-well fluorescence plate reader (Gemini-EM, […]) and analyzed with excitation and emission wavelength bands at 485 and 530 nm, respectively. Fluorescence readings were plotted against the Log [drug], and curve fitting performed by nonlinear regression to find the IC50 value.

[8] = target: T3, recombinant human norepinephrine (hNET) transporter (Homo sapiens, UniProt P23975); experiment: Inhibition of [3H]neurotransmitter uptake, hNET; assay type: cell-based
T3 construct: expressed in transfected cells; host or cells: HEK cells expressing hNET
Description: as §1, §2, §3

[9] = tested on: D6 (CQ^S) P. falciparum strain; experiment: In vitro fluorescence (Sybr Green I) growth inhibition assay, D6 strain; assay type: cell-based; conditions: Plasmodium falciparum, D6; Table 13; growth inhibition; read-out: IC50 (nM) D6 (CQ^S)
Excerpt: as §4, §5, §6

[10] = tested on: mitogen-induced murine spleen lymphocytes; assay type: cell-based; conditions: mouse spleen lymphocytes; for Cytotoxicity: LC50, 72 hours + 24 hours resazurin; for cytotoxicity values: Table 14
Description: Mouse spleen lymphocytes were isolated from C57B1/6J mice by teasing tissues on a metallic sieve screen. […] Two hundred (200) μl isolated cells were then seeded in separate wells of a 96-well flat-bottom tissue culture plate at a density of 2×10^5 cells per well. […] After 72 hours incubation in a humidified atmosphere at 37° C. and 5% CO2, a solution of resazurin PBS was added to a final concentration 10 μM, and the plates were returned to the incubator for another 24 hours. Resazurin is a substrate which changes color in response to metabolic activity (such as, living cells). […] LC50 values were determined from plots of florescence versus drug concentration using non-linear regression by Prism software.

[11] = tested on: W2 (CQ^R) P. falciparum strain; experiment: In vitro fluorescence (Sybr Green I) growth inhibition assay, W2 strain; assay type: cell-based; conditions: Plasmodium falciparum, W2; Table 13; growth inhibition; read-out: IC50 (nM) W2 (CQ^R)
[12] = tested on: P. falciparum strain TM91C235; conditions: cited from earlier work; also: key: S = sensitive; R = resistant; S/R = intermediate level of resistance

T3 sequence (P23975 whole entry): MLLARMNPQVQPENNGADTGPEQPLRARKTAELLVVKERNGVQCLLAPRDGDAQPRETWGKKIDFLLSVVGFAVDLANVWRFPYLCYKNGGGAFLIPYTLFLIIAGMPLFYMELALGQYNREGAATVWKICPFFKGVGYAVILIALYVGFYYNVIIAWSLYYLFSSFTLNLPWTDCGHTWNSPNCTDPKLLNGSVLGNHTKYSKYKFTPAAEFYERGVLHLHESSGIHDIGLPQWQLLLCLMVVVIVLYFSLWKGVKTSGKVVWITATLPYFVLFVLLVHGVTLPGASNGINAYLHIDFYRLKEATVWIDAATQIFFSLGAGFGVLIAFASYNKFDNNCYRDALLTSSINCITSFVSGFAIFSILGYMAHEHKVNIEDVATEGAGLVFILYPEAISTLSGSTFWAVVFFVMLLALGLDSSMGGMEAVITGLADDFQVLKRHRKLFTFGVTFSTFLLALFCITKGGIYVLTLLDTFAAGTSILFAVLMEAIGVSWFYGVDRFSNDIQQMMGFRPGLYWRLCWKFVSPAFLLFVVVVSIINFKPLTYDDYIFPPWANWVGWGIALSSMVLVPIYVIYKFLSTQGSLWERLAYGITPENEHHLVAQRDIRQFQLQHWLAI
T2 sequence (Q01959 whole entry): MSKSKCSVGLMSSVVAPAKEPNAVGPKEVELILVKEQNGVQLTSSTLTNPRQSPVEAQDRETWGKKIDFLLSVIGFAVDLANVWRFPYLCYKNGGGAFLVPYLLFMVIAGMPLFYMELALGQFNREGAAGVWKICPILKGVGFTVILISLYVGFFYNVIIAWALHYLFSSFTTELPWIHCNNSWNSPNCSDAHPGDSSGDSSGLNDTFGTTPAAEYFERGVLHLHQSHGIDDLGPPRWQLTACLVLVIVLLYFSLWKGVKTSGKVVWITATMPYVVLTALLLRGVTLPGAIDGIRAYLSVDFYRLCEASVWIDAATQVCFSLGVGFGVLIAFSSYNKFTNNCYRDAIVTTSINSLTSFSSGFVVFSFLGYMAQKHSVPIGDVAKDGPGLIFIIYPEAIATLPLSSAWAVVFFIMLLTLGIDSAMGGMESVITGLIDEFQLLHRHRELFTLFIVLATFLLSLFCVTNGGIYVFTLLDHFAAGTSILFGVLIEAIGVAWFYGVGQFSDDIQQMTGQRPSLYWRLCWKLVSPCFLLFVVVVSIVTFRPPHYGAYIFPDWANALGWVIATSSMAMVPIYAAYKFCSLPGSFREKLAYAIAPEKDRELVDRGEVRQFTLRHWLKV
T1 sequence (P31645 whole entry): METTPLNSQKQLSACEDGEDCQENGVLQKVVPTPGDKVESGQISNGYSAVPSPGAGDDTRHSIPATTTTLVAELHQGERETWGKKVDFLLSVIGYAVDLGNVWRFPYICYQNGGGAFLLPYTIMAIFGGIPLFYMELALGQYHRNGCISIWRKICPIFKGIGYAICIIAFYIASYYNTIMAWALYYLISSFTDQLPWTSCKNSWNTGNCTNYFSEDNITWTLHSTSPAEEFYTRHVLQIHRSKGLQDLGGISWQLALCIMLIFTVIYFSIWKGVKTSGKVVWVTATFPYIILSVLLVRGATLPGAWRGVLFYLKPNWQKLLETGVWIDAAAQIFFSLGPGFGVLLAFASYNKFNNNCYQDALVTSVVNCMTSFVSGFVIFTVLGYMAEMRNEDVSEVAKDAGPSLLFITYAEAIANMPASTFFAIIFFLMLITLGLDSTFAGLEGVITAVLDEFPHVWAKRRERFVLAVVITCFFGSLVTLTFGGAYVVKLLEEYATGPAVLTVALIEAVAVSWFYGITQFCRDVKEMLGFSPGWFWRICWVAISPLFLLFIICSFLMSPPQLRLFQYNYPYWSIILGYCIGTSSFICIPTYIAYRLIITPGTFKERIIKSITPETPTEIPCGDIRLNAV

Row | Compound | IC50 [7] [nM] | IC50 [9] [nM] | Cytotoxicity [10] [nM] | further results
1 | CC1(C)N=C(N)N=C(N)N1c1ccc(Cl)cc1 [Cycloguanil] |  |  |  | Drug susceptibility, strain D6 [1]: S; Drug susceptibility, strain W2 [2]: R; Drug susceptibility, strain Dd2 [3]: S; Drug susceptibility, strain FCR3 [4]: S
2 | Clc1ccc2c(NCCCN3CCCN(C(c4ccccc4)c4ccccc4)CC3)ccnc2c1 [RCQ_73] | 4.1 | 4.8 | 700 | IC50 [5]: 1160 nM; IC50 [6]: 1400 nM; IC50 [8]: 660 nM; cytotoxicity values [10]: 700 nM
3 | Clc1ccc2c(NCCCNCCN(c3ccccc3)c3ccccc3)ccnc2c1 [RCQ_05(desMe)] | 27 | 36 |  | 
4 | Clc1ccc2c(NCCCNCCCN(Cc3ccccc3)Cc3ccccc3)ccnc2c1 [RCQ_22] | 79 | 45 | 700 | cytotoxicity values [10]: 700 nM
5 | Clc1ccc2c(NCCN3CCCN(C(c4ccccc4)c4ccccc4)CC3)ccnc2c1 [RCQ_36] | 98 | 11.7 | 5300 | cytotoxicity values [10]: 5300 nM
6 | Fc1ccc(C(c2ccc(F)cc2)N2CCN(CCCNc3ccnc4cc(Cl)ccc34)CC2)cc1 [RCQ_37F2] | 19 | 15 | 4100 | 
7 | CN(CCCN1c2ccccc2CCc2ccccc21)CCNc1ccnc2cc(Cl)ccc12 [RCQ_33] | 9.3 | 8.1 | 1400 | IC50 [11]: 9.3 nM
8 | Clc1ccc2c(NCCCN3CCC(=C4c5ccccc5C=Cc5ccccc54)CC3)ccnc2c1 [RCQ_42] | 1.8 | 2.1 | 1100 | 
9 | Clc1ccc2c(NCCCNCCCCN(Cc3ccccc3)Cc3ccccc3)ccnc2c1 [RCQ_26] | 10.6 | 7.6 |  | 
10 | C=C[C@H]1C[N@@]2CC[C@H]1C[C@H]2[C@H](O)c1ccnc2ccc(OC)cc12 [Quinine] |  |  |  | Drug susceptibility, strain D6 [1]: S; Drug susceptibility, strain TM91C235 [12]: R; Drug susceptibility, strain W2 [2]: R; Drug susceptibility, strain Dd2 [3]: R; Drug susceptibility, strain FCR3 [4]: S
11 | Clc1ccc2c(NCCCN3CCN(C(c4ccccc4)c4ccccc4)CC3)ccnc2c1 [RCQ_34] | 3.7 | 2.4 | 1100 | IC50 [11]: 2.5 nM
12 | COc1ncnc(NS(=O)(=O)c2ccc(N)cc2)c1OC [Sulfadoxine] |  |  |  | Drug susceptibility, strain D6 [1]: S; Drug susceptibility, strain TM91C235 [12]: R; Drug susceptibility, strain W2 [2]: R; Drug susceptibility, strain Dd2 [3]: S; Drug susceptibility, strain FCR3 [4]: S
13 | Clc1ccc(C(c2ccccc2)N2CCN(CCNc3ccnc4cc(Cl)ccc34)CC2)cc1 (stereo not shown) [RCQ_32] | 3.4 | 2.6 | 1400 | IC50 [11]: 3.4 nM
14 | CCN1CCN(c2ccnc3cc(Cl)ccc23)CC1 [Q_38a] | 400 | 280 |  | 
15 | Clc1ccc(C(c2ccccc2)N2CCCN(CCCNc3ccnc4cc(Cl)ccc34)CC2)cc1 (stereo not shown) [RCQ_74] | 9.8 | 15 | 900 | 
16 | Clc1ccc2c(NCCCN3CCCN(C4c5ccccc5-c5ccccc54)CC3)ccnc2c1 [RCQ_76] | 15.3 | 21.1 | 2500 | IC50 [5]: 965 nM; IC50 [6]: 1080 nM; IC50 [8]: 550 nM
17 | Clc1ccc2c(NCCN3CCCN(C4c5ccccc5-c5ccccc54)CC3)ccnc2c1 [RCQ_72] | 9.6 | 9.2 | 2500 | 
18 | OC(c1cc(C(F)(F)F)nc2c(C(F)(F)F)cccc12)C1CCCCN1 (stereo not shown) [Mefloquine] |  |  |  | Drug susceptibility, strain D6 [1]: S/R; Drug susceptibility, strain TM91C235 [12]: R; Drug susceptibility, strain W2 [2]: S; Drug susceptibility, strain Dd2 [3]: R; Drug susceptibility, strain FCR3 [4]: S
19 | Clc1ccc(C(c2ccccc2)N2CCN(CCCNc3ccnc4cc(Cl)ccc34)CC2)cc1 (stereo not shown) [RCQ_35] | 6 | 4 | 800 | IC50 [11]: 4 nM
20 | Clc1ccc2c(N3CCN(CCN(Cc4ccccc4)Cc4ccccc4)CC3)ccnc2c1 [RCQ_351] | 164 | 141 |  | 
